Source: US11926576B1, “4,4′-naphthalene-1,5-diylbis(diazene-2,1-diyl)dibenzene-1,2-diol as an antioxidant compound” (KING FAISAL UNIVERSITY, priority 2023, dated 2024)

Experiment: DPPH radical scavenging antioxidant test
Format: biochemical
Conditions: 517 nm; for Inhibition (radical scavenging inhibition): compound 3 μM in ethanol, 0.2 mL DPPH (0.75 mM), 30 min incubation in the dark
Protocol: The antioxidant properties of the 4,4′-naphthalene-1,5-diylbis(diazene-2,1-diyl)dibenzene-1,2-diol were studied by adding 0.2 mL DPPH (0.75 mM)) to compound 4,4′-naphthalene-1,5-diylbis(diazene-2,1-diyl)dibenzene-1,2-diol (III) (3 μM) in ethanol. After 30 min of incubation in the dark, the absorbance was read against a blank at 517 nm. Ascorbic acid (vitamin C) was used as standard antioxidants (positive control). A blank sample was prepared by 0.2 ml of DPPH in 3 ml ethanol. A negative control sample was run using ethanol instead of the sample. The radical scavenging inhibition was calculated using the following equation: […]

Structure (SMILES)	Inhibition (radical scavenging inhibition) [%]	antioxidant potential (DPPH) compared to vitamin C (DPPH in vitro test, vitamin C as positive control)
O=C1O[C@H]([C@@H](O)CO)C(O)=C1O [vit c, Ascorbic acid, reference compound]	74	–
Oc1ccc(/N=N/c2cccc3c(/N=N/c4ccc(O)c(O)c4)cccc23)cc1O [Product III, 4,4′-naphthalene-1,5-diylbis(diazene-2,1-diyl)dibenzene-1,2-diol]	50	high potential as an antioxidant compared to vitamin C
